Assay results published in patent US12005050B2, “Methods for preventing or treating H. pylori infection” (TENNOR THERAPEUTICS (SUZHOU) LIMITED, priority 2022, dated 2024).

Settings: human, in vivo
Method: The 40 patients were randomly allocated to four groups at a ratio of 1:1:1:1. […] The detection linear range was as below: • Compound I: Lower Limit Of Quantitation (LLOQ): 1.00 ng/mL; Upper Limit Of Quantitation (ULOQ): 1,000 ng/mL • Rabeprazole sodium: LLOQ: 2.00 ng/mL; […] […] Pharmacokinetics Evaluation Plasma drug concentrations of various groups at different time points were determined, including: arithmetic mean, standard deviation, minimum, median, maximum, geometric mean, coefficient of variation, and coefficient of geometric variation. The pharmacokinetic parameters calculated from the first and last administration were descriptively analyzed according to various trial groups, including: arithmetic mean, standard deviation, minimum value, median, maximum value, geometric mean, coefficient of variation, geometric coefficient of variation, etc. In addition, the accumulation index AUC0-tau, ss(D15)/AUC0-tau (D1) was calculated. […]

Effect of rabeprazole and amoxicillin on the pharmacokinetic profile of Compound I: no significant effect
SMILES: CO[C@H]1/C=C/O[C@@]2(C)Oc3c(C)c(O)c4c(c3C2=O)C2=NC3(CCN(CCn5c([N+](=O)[O-])cnc5C)CC3)NC2=C(NC(=O)/C(C)=C\C=C\[C@H](C)[C@H](O)[C@@H](C)[C@@H](O)[C@@H](C)[C@H](OC(C)=O)[C@@H]1C)C4=O [Compound I, 4-Deoxy-3,4-[2-spiro-[1-[2-(2-methyl-5-nitro-imidazol-1-yl)ethyl]-piperidin-4-yl]]-(1H)-imidazo-(2,5-dihydro)rifamycin]
